Among the test systems are A549 NSCLC; CCRF-CEM leukemia; HCC-2998 colon; HL-60(TB) leukemia; IGROV1 ovarian; OVCAR-8 ovarian; SK-MEL-2 melanoma; SK-OV-3 ovarian; SN12C renal; T-47D breast.
What all share (experiment): growth of human tumour cells (NCI), 48 h

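Compound exposure: 48 hours, 5 concentrations, 96-well plates. Abbreviation: GI50, concentration required for 50% inhibition of growth. TGI marks complete inhibition of growth.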 Some results are limits rather than exact numbers.

Turning to `c1ccc2c(c1)cc1ccc3cccc4ccc2c1c34`, the TGI with A549 NSCLC, with CCRF-CEM leukemia, with HCC-2998 colon, in the assay with HL-60(TB) leukemia, with IGROV1 ovarian and with OVCAR-8 ovarian was above 100 µM each time. For the same compound, the TGI with SK-MEL-2 melanoma, in the assay on SK-OV-3 ovarian, in the assay on SN12C renal and in the assay with T-47D breast was above 100 µM in each case.
In the case of `Cc1cccc2c1CC(Cc1ccccc1C(=O)O)C2=O` (stereo not given), the TGI in the assay on A549 NSCLC, in the assay on CCRF-CEM leukemia, in the assay on HCC-2998 colon, in the assay on HL-60(TB) leukemia, with IGROV1 ovarian and in the assay with OVCAR-8 ovarian was above 100 µM each time. For the same compound, the TGI with SK-MEL-2 melanoma, in the assay on SK-OV-3 ovarian, in the assay with SN12C renal and with T-47D breast was above 100 µM throughout.
For the compound `CCN(CC)CCCCNc1c2ccc(Cl)cc2nc2ccc(OC)cc12`, the GI50 in the assay on A549 NSCLC was 0.367 µM; in the assay with CCRF-CEM leukemia, 0.524 µM; in the assay on HCC-2998 colon, 0.78 µM; in the assay on HL-60(TB) leukemia, 1.03 µM; in the assay on IGROV1 ovarian, 0.777 µM; in the assay on OVCAR-8 ovarian, 0.406 µM. In addition, the GI50 is 1.15 µM with SK-MEL-2 melanoma, 0.637 µM in the assay on SK-OV-3 ovarian, 0.438 µM with SN12C renal and 1.22 µM in the assay on T-47D breast. Moreover, the TGI in the assay with A549 NSCLC was found to be 2.58 µM; in the assay with CCRF-CEM leukemia, 5.3 µM; in the assay with HCC-2998 colon, 2.32 µM; in the assay on HL-60(TB) leukemia, 3.2 µM; with IGROV1 ovarian, 8.61 µM; with OVCAR-8 ovarian it was 3.35 µM. The TGI turned out to be 3.31 µM in the assay with SK-MEL-2 melanoma, 3.46 µM in the assay with SK-OV-3 ovarian, 2.61 µM with SN12C renal and 4.54 µM in the assay with T-47D breast.
Take `COC1(CC[C@H](C)COC2OC(CO)C(O)C(O)C2O)O[C@H]2C[C@H]3[C@@H]4CC=C5C[C@@H](OC6OC(CO)C(OC7OC(C)C(O)C(O)C7O)C(O)C6OC6OC(C)C(O)C(O)C6O)CC[C@]5(C)[C@H]4CC[C@]3(C)[C@H]2[C@@H]1C` (stereo not given in full): the TGI with A549 NSCLC was 4.28 µM; with CCRF-CEM leukemia, above 37.1 µM; in the assay on HCC-2998 colon it was above 27.9 µM; in the assay with HL-60(TB) leukemia, 46.6 µM; in the assay with IGROV1 ovarian, 20.1 µM; in the assay with OVCAR-8 ovarian, 10.1 µM. Moreover, the TGI with SK-MEL-2 melanoma was 13.6 µM; with SK-OV-3 ovarian it was 7.99 µM; with SN12C renal, above 100 µM; with T-47D breast, 9.83 µM.
For `O=c1c2ccc(Cl)cc2oc2c(CNc3ccc(S(=O)(=O)Nc4ncccn4)cc3)cccc12`, the TGI in the assay on A549 NSCLC, with CCRF-CEM leukemia, in the assay with HCC-2998 colon, in the assay with HL-60(TB) leukemia, in the assay with IGROV1 ovarian and in the assay with OVCAR-8 ovarian was above 100 µM throughout. Also, the TGI in the assay with SK-MEL-2 melanoma, in the assay on SK-OV-3 ovarian, in the assay on SN12C renal and in the assay with T-47D breast was above 100 µM in each case.
In the case of `Clc1ccc(/C(=C/c2ccccc2)Cn2ccnc2)cc1`, the TGI in the assay with A549 NSCLC was above 100 µM; in the assay on CCRF-CEM leukemia it was above 100 µM; with HCC-2998 colon, above 100 µM; with HL-60(TB) leukemia, 46.3 µM; in the assay on IGROV1 ovarian it was above 100 µM; with OVCAR-8 ovarian, above 100 µM. For the same compound, the TGI is 40.8 µM in the assay with SK-MEL-2 melanoma, above 100 µM in the assay with SK-OV-3 ovarian, above 100 µM in the assay on SN12C renal and above 100 µM in the assay on T-47D breast.
`CCOC(=O)[C@@H](Cc1ccc(CCl)cc1)NC(C)=O`: the TGI with A549 NSCLC is above 100 µM; in the assay on CCRF-CEM leukemia, above 100 µM; in the assay on HCC-2998 colon, 40.4 µM; in the assay with HL-60(TB) leukemia it was 70.7 µM; in the assay on IGROV1 ovarian, 51.2 µM; with OVCAR-8 ovarian it was above 100 µM. Moreover, the TGI with SK-MEL-2 melanoma was 39.6 µM; in the assay on SK-OV-3 ovarian, above 100 µM; with SN12C renal, 49.6 µM; in the assay on T-47D breast, 93.7 µM.
Turning to `CCOC(=O)/C=C/CCC(C)(C)COC(C)=O`, the TGI in the assay on A549 NSCLC, with CCRF-CEM leukemia, in the assay on HCC-2998 colon, in the assay with HL-60(TB) leukemia, in the assay on IGROV1 ovarian and in the assay on OVCAR-8 ovarian was above 10 µM each time. Also, the TGI in the assay on SK-MEL-2 melanoma, in the assay with SK-OV-3 ovarian, in the assay on SN12C renal and with T-47D breast was above 10 µM throughout.
Turning to `CCc1nc2c(c(N(C)C)c1C(=O)OC)CCc1ccccc1-2`, the TGI was above 100 µM in the assay on A549 NSCLC; 9.43 µM with CCRF-CEM leukemia; 67.5 µM with HCC-2998 colon; 9.43 µM with HL-60(TB) leukemia; above 100 µM with IGROV1 ovarian; above 100 µM in the assay on OVCAR-8 ovarian. The TGI in the assay on SK-MEL-2 melanoma was 39.5 µM; with SK-OV-3 ovarian, 51.4 µM; with SN12C renal, above 100 µM; in the assay with T-47D breast, 58.1 µM.
As for `NCCCCNCCCN1CCOC1=O`, the TGI with A549 NSCLC, in the assay on CCRF-CEM leukemia, with HCC-2998 colon, in the assay on HL-60(TB) leukemia, in the assay with IGROV1 ovarian and in the assay with OVCAR-8 ovarian was above 100 µM each time. Moreover, the TGI in the assay with SK-MEL-2 melanoma, in the assay on SK-OV-3 ovarian, in the assay with SN12C renal and in the assay with T-47D breast was above 100 µM in each case.
On to `N#C/C(C(=O)NCc1ccccc1)=C(/N)N1CCCC1`, for which the TGI in the assay on A549 NSCLC, with CCRF-CEM leukemia, with HCC-2998 colon, in the assay on HL-60(TB) leukemia, with IGROV1 ovarian and in the assay on OVCAR-8 ovarian was above 100 µM each time. For the same compound, the TGI in the assay on SK-MEL-2 melanoma, in the assay with SK-OV-3 ovarian, in the assay on SN12C renal and in the assay with T-47D breast was above 100 µM throughout.
With `O=C(NC(C(F)(F)F)(C(F)(F)F)P(=O)(Cc1ccccc1)Cc1ccccc1)C(C(F)(F)F)C(F)(F)F`, the TGI with A549 NSCLC was 68.3 µM; with CCRF-CEM leukemia, above 100 µM; with HCC-2998 colon, 49.8 µM; in the assay on HL-60(TB) leukemia it was 71.3 µM; in the assay with IGROV1 ovarian, 36.1 µM; in the assay on OVCAR-8 ovarian, 46.5 µM. The TGI is 59.1 µM in the assay on SK-MEL-2 melanoma, above 100 µM with SK-OV-3 ovarian, 38.4 µM in the assay on SN12C renal and 95.1 µM with T-47D breast.
Take `CC1=NN2C(=N)/C(=C/c3ccc(F)cc3)C(=O)N=C2S1`: the TGI with A549 NSCLC, with CCRF-CEM leukemia, in the assay with HCC-2998 colon, in the assay on HL-60(TB) leukemia, in the assay with IGROV1 ovarian and with OVCAR-8 ovarian was above 100 µM each time. For the same compound, the TGI with SK-MEL-2 melanoma, with SK-OV-3 ovarian, in the assay with SN12C renal and in the assay on T-47D breast was above 100 µM each time.
For `CN(C)/N=N/c1nc2c(c(=O)n(C)c(=O)n2C)n1CC1CO1` (stereo not given), the TGI in the assay with A549 NSCLC was 69.4 µM; in the assay on CCRF-CEM leukemia, above 100 µM; in the assay with HCC-2998 colon, 25.3 µM; in the assay on HL-60(TB) leukemia, above 100 µM; in the assay with IGROV1 ovarian it was 29.9 µM; in the assay with OVCAR-8 ovarian, 36.7 µM. The TGI in the assay on SK-MEL-2 melanoma amounted to 23.1 µM; in the assay with SK-OV-3 ovarian it was 61.7 µM; with SN12C renal, 46.7 µM; in the assay on T-47D breast it was 80 µM.
Take `NC(=O)c1ccc[n+](C2=C([O-])c3ccccc3C(=O)/C2=N\S(=O)(=O)c2ccccc2)c1`: the TGI is 37.7 µM in the assay with A549 NSCLC; above 100 µM in the assay on CCRF-CEM leukemia; 22.6 µM with HCC-2998 colon; above 100 µM with HL-60(TB) leukemia; 24.5 µM in the assay with IGROV1 ovarian; 28.4 µM in the assay on OVCAR-8 ovarian. Further, the TGI is 25.7 µM in the assay on SK-MEL-2 melanoma, above 100 µM in the assay on SK-OV-3 ovarian, 30.9 µM with SN12C renal and 53.6 µM in the assay on T-47D breast.
For the compound `Cn1c(=O)cc(NNc2ccc(Cl)c(Cl)c2)[nH]c1=O`, the TGI is 36 µM in the assay on A549 NSCLC; 37.3 µM in the assay with CCRF-CEM leukemia; 16.6 µM in the assay on HCC-2998 colon; 91 µM in the assay with HL-60(TB) leukemia; 23.5 µM with IGROV1 ovarian; 31 µM with OVCAR-8 ovarian. The TGI is 33.6 µM with SK-MEL-2 melanoma, above 100 µM in the assay on SK-OV-3 ovarian, 21.2 µM in the assay with SN12C renal and 21.1 µM in the assay with T-47D breast.
As to `CN(C)CCNCCCNc1c2ccccc2nc2cccc([N+](=O)[O-])c12`, the TGI is 0.0999 µM in the assay with A549 NSCLC; below 0.0207 µM with CCRF-CEM leukemia; below 0.0184 µM in the assay with HCC-2998 colon; 0.0247 µM with HL-60(TB) leukemia; 0.173 µM in the assay with IGROV1 ovarian; 0.0532 µM in the assay on OVCAR-8 ovarian. Further, the TGI is 0.0523 µM in the assay on SK-MEL-2 melanoma, 0.26 µM in the assay on SK-OV-3 ovarian, 0.279 µM in the assay with SN12C renal and 0.0899 µM with T-47D breast.
`O=C1C=CC(=O)c2c(O)c(N3CCC[C@@H]3CO)c(Cl)c(O)c21`: the TGI in the assay on A549 NSCLC came out at 4.19 µM; with CCRF-CEM leukemia, 0.869 µM; with HCC-2998 colon it was 3.49 µM; in the assay with HL-60(TB) leukemia it was 0.734 µM; with IGROV1 ovarian, 3.27 µM; in the assay with OVCAR-8 ovarian, 4.13 µM. Besides, the TGI with SK-MEL-2 melanoma was 3.15 µM; with SK-OV-3 ovarian it was 7.78 µM; in the assay with SN12C renal, 3.25 µM; in the assay with T-47D breast, 4.27 µM.
For `CNC(=S)N1CCN(C(C)=O)C1=S`, the TGI in the assay on A549 NSCLC, in the assay with CCRF-CEM leukemia, with HCC-2998 colon, in the assay on HL-60(TB) leukemia, in the assay on IGROV1 ovarian and in the assay with OVCAR-8 ovarian was above 100 µM throughout. Besides, the TGI with SK-MEL-2 melanoma was 5.36 µM; with SK-OV-3 ovarian, above 100 µM; with SN12C renal, above 100 µM; in the assay with T-47D breast it was 90.7 µM.

The record behind these values is PubChem BioAssay (NCI).
